Measurements as given in ChEMBL document CHEMBL2163201, “Discovery of novel pyrrolopyridazine scaffolds as transient receptor potential vanilloid (TRPV1) antagonists” (Bioorg Med Chem Lett, 2012).
In brackets after ≈: the same amount, converted by molar mass.

Test: Equilibrium solubility of the compound in DMSO preincubated for 4 hrs
Assay type: physicochemical
Conditions: not given

solubility at 4 h	SMILES
340 µM (≈ 115 µg/mL)	CCN(CCO)C(=O)c1cc2cccnn2c1-c1cccc(OC)c1
28 µM (≈ 11 µg/mL)	CCN(CCO)C(=O)c1cc2ccc(C)nn2c1-c1cccc(C(F)(F)F)c1
190 µM (≈ 74.4 µg/mL)	CCN(CCO)C(=O)c1cc2cc(C)cnn2c1-c1cccc(C(F)(F)F)c1
25 µM (≈ 10.2 µg/mL)	CCN(CCO)C(=O)c1cc2cc(OC)cnn2c1-c1cccc(C(F)(F)F)c1
> 400 µM	COc1ccc(-c2c(C(=O)N3CCC[C@H]3CO)cc3cccnn23)cc1
200 µM (≈ 75.5 µg/mL)	CCN(CCO)C(=O)c1cc2cccnn2c1-c1cccc(C(F)(F)F)c1
> 400 µM	CCN(CCO)C(=O)c1oc2cccnc2c1-c1cccc(C(F)(F)F)c1
> 300 µM	CCN(CCO)C(=O)c1cc2cccnc2n1-c1cccc(C(F)(F)F)c1
270 µM (≈ 102 µg/mL)	CCN(CCO)C(=O)c1nc2ccccn2c1-c1cccc(C(F)(F)F)c1
240 µM (≈ 90.6 µg/mL)	CCN(CCO)C(=O)c1cc2ccncn2c1-c1cccc(C(F)(F)F)c1
24 µM (≈ 9.08 µg/mL)	CCN(CCO)C(=O)c1nc2cccnc2n1-c1cccc(C(F)(F)F)c1
330 µM (≈ 107 µg/mL)	CCN(CCO)C(=O)c1cc2cccnn2c1-c1cccc(C)c1
22 µM (≈ 8.3 µg/mL)	CCN(CCO)C(=O)c1cc2cccnn2c1-c1ccc(C(F)(F)F)cc1
170 µM (≈ 66.5 µg/mL)	CCN(CCO)C(=O)c1cc2cccnn2c1Cc1cccc(C(F)(F)F)c1
25 µM (≈ 10.7 µg/mL)	CCN(CCO)C(=O)c1cc2cccnn2c1-c1cccc(C(=O)Nc2ccccc2)c1
360 µM (≈ 140 µg/mL)	O=C(c1cc2cccnn2c1-c1cccc(C(F)(F)F)c1)N1CCC[C@H]1CO
150 µM (≈ 62 µg/mL)	CCN(Cc1ccn[nH]1)C(=O)c1cc2cccnn2c1-c1cccc(C(F)(F)F)c1
220 µM (≈ 88.7 µg/mL)	O=C(Cc1cc2cccnn2c1-c1cccc(C(F)(F)F)c1)N1CCC[C@@H]1CO
32 µM (≈ 12.5 µg/mL)	CCN(CCO)C(=O)c1cc2c(C)ccnn2c1-c1cccc(C(F)(F)F)c1
280 µM (≈ 90.3 µg/mL)	CCCN(CCO)C(=O)c1cc2ccccn2c1-c1ccccc1
260 µM (≈ 83.8 µg/mL)	CCN(CCO)C(=O)c1cc2ccccn2c1-c1cccc(C)c1
150 µM (≈ 50.8 µg/mL)	CCN(CCO)C(=O)c1cc2ccccn2c1-c1cccc(OC)c1
190 µM (≈ 64.5 µg/mL)	CCN(CCO)C(=O)c1cc2ccccn2c1-c1cccc(OC)n1
360 µM (≈ 136 µg/mL)	CCN(CCO)C(=O)c1cc2ccccn2c1-c1cccc(C(F)(F)F)n1
260 µM (≈ 94.8 µg/mL)	COc1cccc(-c2c(C(=O)N3CCCCC3CO)cc3ccccn23)c1 (stereo unspecified)
250 µM (≈ 89.9 µg/mL)	N#Cc1cccc(-c2c(C(=O)N3CCCCC3CO)cc3ccccn23)c1 (stereo unspecified)

Test: Apparent permeability across apical to basolateral side of human Caco2 cells
Assay type: ADME, cell-based
Conditions: Caco-2

Papp A→B	SMILES
42 ×10⁻⁶ cm/s	CCN(CCO)C(=O)c1cc2cccnn2c1-c1cccc(C(F)(F)F)c1
60 ×10⁻⁶ cm/s	CCCN(CCO)C(=O)c1cc2ccccn2c1-c1ccccc1
54 ×10⁻⁶ cm/s	CCN(CCO)C(=O)c1cc2ccccn2c1-c1cccc(OC)c1
56 ×10⁻⁶ cm/s	CCN(CCO)C(=O)c1cc2ccccn2c1-c1cccc(OC)n1
58 ×10⁻⁶ cm/s	COc1cccc(-c2c(C(=O)N3CCCCC3CO)cc3ccccn23)c1 (stereo unspecified)
